In ChEMBL document CHEMBL4706505, “F10, a new camptothecin derivative, was identified as a new orally-bioavailable, potent antitumor agent” (Eur J Med Chem, 2020):
Values after ≈ are worked out from the molar mass of the structure shown.

Assays:
Raji [1] = experiment: Antitumor activity against NPG mouse xenografted with human Raji cell assessed as tumor growth inhibition at 2 mg/kg, ip measured after 5 day; format: functional; conditions: 120 h, read-out: TGI
Raji [2] = experiment: Antitumor activity against NPG mouse xenografted with human Raji cell assessed as decrease in tumor volume at 2 mg/kg, ip measured after 5 day; format: functional
[3] = AUC (0 to infinity) in nude BALB/c mouse serum at 8.0 mg/kg incubated up to 9 hrs, po administered via gavage by LC-MS/MS analysis; format: ADME, organism-based; set-up: route oral, dose 8 mg/kg, time <=9; conditions: in vivo
[4] = target: T1, DNA topoisomerase 1 (Homo sapiens) (UniProt P11387); experiment: Inhibition of human recombinant topoisomerase I using DNA pBR322 as substrate assessed as relaxed DNA at 1 uM incubated for 30 mins by gel electrophoresis analysis relative to control
T1 sequence (whole entry): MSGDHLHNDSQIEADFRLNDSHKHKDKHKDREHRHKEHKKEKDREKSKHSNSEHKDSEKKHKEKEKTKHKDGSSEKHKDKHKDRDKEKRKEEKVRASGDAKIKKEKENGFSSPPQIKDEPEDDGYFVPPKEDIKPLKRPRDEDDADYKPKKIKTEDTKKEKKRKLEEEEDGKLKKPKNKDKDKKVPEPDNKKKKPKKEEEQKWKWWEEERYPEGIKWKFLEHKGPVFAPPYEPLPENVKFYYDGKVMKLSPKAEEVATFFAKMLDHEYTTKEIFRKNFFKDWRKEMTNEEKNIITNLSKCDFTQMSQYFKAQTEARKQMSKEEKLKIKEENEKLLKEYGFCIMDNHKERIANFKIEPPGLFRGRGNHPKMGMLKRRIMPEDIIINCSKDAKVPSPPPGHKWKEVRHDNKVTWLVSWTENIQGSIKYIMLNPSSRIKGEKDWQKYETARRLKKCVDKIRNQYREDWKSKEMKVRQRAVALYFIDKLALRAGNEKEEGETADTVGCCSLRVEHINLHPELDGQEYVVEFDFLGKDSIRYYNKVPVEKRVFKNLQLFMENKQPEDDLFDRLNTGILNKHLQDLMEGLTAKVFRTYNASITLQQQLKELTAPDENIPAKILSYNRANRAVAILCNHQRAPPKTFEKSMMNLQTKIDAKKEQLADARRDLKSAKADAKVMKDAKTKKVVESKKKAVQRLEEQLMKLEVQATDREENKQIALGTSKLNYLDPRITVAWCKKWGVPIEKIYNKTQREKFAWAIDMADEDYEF

[5] = Clearance in nude BALB/c mouse serum at 8.0 mg/kg incubated up to 9 hrs, iv administered […] by LC-MS/MS analysis; format: ADME, organism-based
A549 = experiment: Cytotoxicity against human A549 assessed as reduction in cell viability measured after 72 hrs by MTT assay; format: functional, cell-based; conditions: A549, 72 h
[6] = Toxicity in NPG mouse xenografted with human Raji cells assessed as body weight loss at 4 mg/kg, ip measured on the day 1; format: organism-based; conditions: in vivo
HCT-116 [7] = experiment: Antitumor activity against human HCT-116 cells xenografted in nude BALB/c mouse assessed as tumor growth inhibition at 2 mg/kg, po dosed once the other day for 12 times upto 24 days; format: functional; conditions: HCT-116, po, 576 h, time day <=24, read-out: TGI
[8] = Clearance in nude BALB/c mouse serum at 8.0 mg/kg incubated up to 9 hrs, po administered via gavage by LC-MS/MS analysis; format: ADME, organism-based
[9] = Toxicity in Kunming mouse assessed as mortality at 200 mg/kg ip measured once every 30 mins upto 10 days; format: organism-based; conditions: in vivo, 0.5 h
Raji [10] = experiment: Antitumor activity against NPG mouse xenografted with human Raji cell assessed as tumor growth inhibition at 4 mg/kg, ip measured after 5 day; format: functional; conditions: 120 h, read-out: TGI
NCI-H1975 = experiment: Cytotoxicity against human NCI-H1975 assessed as reduction in cell viability measured after 72 hrs by MTT assay; format: functional, cell-based; conditions: NCI-H1975, 72 h
[11] = Oral bioavailability in nude BALB/c mouse serum at 8.0 mg/kg incubated up to 9 hrs, via gavage by LC-MS/MS analysis; format: ADME, organism-based
[12] = Half life in nude BALB/c mouse serum at 8.0 mg/kg incubated up to 9 hrs, po administered via gavage by LC-MS/MS analysis; format: ADME, organism-based
[13] = Toxicity in Kunming mouse assessed as mortality at 300 mg/kg, po measured once every 30 mins upto 10 days; format: organism-based; conditions: in vivo, 0.5 h
Raji [14] = experiment: Antitumor activity against NPG mouse xenografted with human Raji cell assessed as decrease in tumor volume at 4 mg/kg, ig measured on the 1 day; format: functional
COLO 205 = experiment: Cytotoxicity against human COLO 205 assessed as reduction in cell viability measured after 72 hrs by MTT assay; format: functional, cell-based; conditions: COLO 205, 72 h
Raji [15] = experiment: Antitumor activity against NPG mouse xenografted with human Raji cell assessed as decrease in tumor volume at 2 mg/kg, ip measured on the 1 day; format: functional
HCT-116 [16] = experiment: Antitumor activity against human HCT-116 cells xenografted in nude BALB/c mouse assessed as tumor growth inhibition at 0.2 mg/kg, ip dosed once the other day for 24 days; format: functional; conditions: HCT-116, ip, 576 h, time 24 day, read-out: TGI
[17] = Solubility of compound in phosphate buffer at pH 7.4 incubated for 24 hrs under shaking condition by HPLC analysis; format: physicochemical
Raji [18] = experiment: Antitumor activity against NPG mouse xenografted with human Raji cell assessed as tumor growth inhibition at 8 mg/kg, ig measured after 5 day; format: functional; conditions: po, 120 h, read-out: TGI
[19] = Solubility of compound in water incubated for 24 hrs under shaking condition by HPLC analysis; format: physicochemical
[20] = Cmax in nude BALB/c mouse serum at 8.0 mg/kg incubated up to 9 hrs, po administered via gavage by LC-MS/MS analysis; format: ADME, organism-based; set-up: route oral, dose 8 mg/kg, time <=9
[21] = Toxicity in NPG mouse xenografted with human Raji cells assessed as body weight loss at 4 mg/kg, ip measured after 5 day; format: organism-based; conditions: in vivo, 120 h
[22] = Toxicity in Kunming mouse assessed as mortality at 60 mg/kg, iv measured once every 30 mins upto 10 days; format: organism-based; conditions: in vivo, 0.5 h
[23] = target: T1, DNA topoisomerase 1 (Homo sapiens); experiment: Inhibition of human recombinant topoisomerase I using DNA pBR322 as substrate assessed as relaxed DNA at 10 uM incubated for 30 mins by gel electrophoresis analysis relative to control
[24] = Tmax in nude BALB/c mouse serum at 8.0 mg/kg incubated up to 9 hrs, iv administered […] by LC-MS/MS analysis; format: ADME, organism-based
[25] = Toxicity in NPG mouse xenografted with human Raji cells assessed as body weight loss at 8 mg/kg, ig measured on the 1 day; format: organism-based; conditions: in vivo, po, 24 h
HCT-116 [26] = experiment: Induction of apoptosis in human HCT-116 cells assessed as late apoptotic cells level at 0.03 uM incubated for 24 hrs by Annexin V-FITC/PI staining based flow cytometry (reference value: 0.07%); format: functional
[27] = AUC (0 to infinity) in nude BALB/c mouse serum at 8.0 mg/kg incubated up to 9 hrs, iv administered […] by LC-MS/MS analysis; format: ADME, organism-based; set-up: route intravenous, dose 8 mg/kg, time <=9; conditions: in vivo
HeLa = experiment: Cytotoxicity against human Hela assessed as reduction in cell viability measured after 72 hrs by MTT assay; format: functional, cell-based

CCc1c2c(nc3ccc(OCC(=O)N4CCCCC4)cc13)-c1cc3c(c(=O)n1C2)COC(=O)[C@]3(O)CC gave an inhibition in vivo at 2 mg/kg (Raji [1]) of 104%, an Activity (Raji [2]) of 936 mm3 and an AUC [3] of 168.07 h/ng/mL. The inhibition [4] was 38.1%, the clearance [5] was 0.179 mL/min and the IC50 (A549) was 11 nM. For the same compound, the Activity [6] was 24.8 g, the inhibition in vivo at 2 mg/kg (HCT-116 [7]) was 79.6% and the CL/F [8] was 0.794 mL/min. The Activity [9] was “Toxic”, the inhibition in vivo at 4 mg/kg (Raji [10]) was 136% and the IC50 (NCI-H1975) was 84 nM. For the same compound, the bioavailability [11] was 22.4%, the half-life [12] was 87.6 min and the Activity [13] was “Toxic”. It also gave an Activity (Raji [14]) of 900 mm3, an IC50 (COLO 205) of 96 nM and an Activity (Raji [15]) of 983 mm3. For the same compound, the inhibition in vivo at 0.2 mg/kg (HCT-116 [16]) was 71.8%, the solubility thermodynamic at 24 h [17] was 19.9 µg/mL (≈ 38.4 µM) and the inhibition in vivo at 8 mg/kg (Raji [18]) was 81.3%. For the same compound, the solubility thermodynamic at 24 h [19] was 6.22 µg/mL (≈ 12 µM), the Cmax [20] was 332 ng/mL and the Activity [21] was 19.2 g. The Activity [22] was “Non-Toxic”, the inhibition [23] was 52.3% and the Tmax [24] was 10.2 min. For the same compound, the Activity [25] was 24.6 g, the Activity (HCT-116 [26]) was 10.73% and the AUC [27] was 748.96 h/ng/mL. For the same compound, the IC50 (HeLa) was 125 nM.
